For one data set, the system named is MDA-MB231. The experiment in a line: Cell survival assay, MDA-MB231. Type of data set: cell-based. Particulars: Homo sapiens, MDA-MB-231; 48 h exposure, nuclei count; read-out: Cell Lines IC50 MDA-MB231. On the procedure:
(§1) Skin diploid fibroblastic cells were provided by BIOPREDIC International Company (Rennes, France). […] Cells were grown according to ECACC recommendations. The toxicity test of the compounds on these cells was as follows: 2 × 10^3 cells for HCT-116 cells or 4 × 10^3 for the other cells were seeded in 96-multi-well plates in triplicate and left for 24 h for attachment, spreading and growing. Then, cells were exposed for 48 h to increasing concentrations of the compounds, ranging from […], in a final volume of 120 μL of culture medium. […] The IC50 were graphically determined.

The next data set concerns PC3. As to the kind of experiment: Cell survival assay, PC3. Type of data set: cell-based. The conditions noted are these: Homo sapiens, PC-3; 48 h exposure, nuclei count; read-out: Cell Lines IC50 PC3. Here is the method: as §1
In data set [1] the target is Casein kinase 1 (CK1δ/ε). The experiment in a line: CK1δ/ε kinase assay. Type of data set: biochemical, porcine. Particulars: Table 4; 15 μM ATP; read-out: IC50 CK1. Here is the method: (§2) The twenty-two (5Z) 5-arylidene-2-thioxo-1,3-thiazolidin-4-ones 3a–v and the twenty-four (5Z) 2-amino-5-arylidene-1,3-thiazolidin-4(5H)-ones 5a–x were evaluated against four different and representative in vitro kinase assays DYRK1A (dual specificity tyrosine phosphorylation regulated kinase), CK1 δ/e (caseine kinase 1), CDK5/p25 (cyclin dependant kinase), and GSK3 α/β (glycogen synthase kinase 3) to evaluate their inhibition potency. […] All the compounds were initially tested at a 10 μM concentration.
(§3) After 30-min incubation at 30 °C, the reaction was stopped by harvesting, using a FilterMate harvester (Packard), onto P81 phospho-cellulose papers (GE Healthcare, Chicago, IL, USA) which were washed in 1% phosphoric acid. Scintillation fluid was added and the radioactivity measured in a Packard counter. Blank values were subtracted and activities calculated as pmoles of phosphate incorporated for the 30-min incubation. The activities were expressed in % of the maximal activity, i.e., in the absence of inhibitors. Controls were performed with appropriate dilutions of DMSO.
Casein kinase 1 (CK1δ/ε) (porcine brain, native) was assayed with 0.67 µg of CKS peptide ([…]pSAYSITA), a CK1 specific substrate obtained from Millegen (Labege, France).

A further data set has as its system Caco2. As to the kind of experiment: Cell survival assay, Caco2. Type of data set: cell-based. The conditions noted are these: Homo sapiens, Caco-2. Here is the method:
as §1

In data set [2] the target is GSK-3α/β. As to the kind of experiment: GSK-3α/β kinase assay. It is filed as biochemical, porcine. Particulars: Table 4; 15 μM ATP; read-out: IC50 GSK3α/β. On the procedure: as §2, §3
GSK-3α/β (porcine brain, native) was assayed, as described for CDK5/p25 but in Buffer A and using a GSK-3 specific substrate (GS-1: […]pEDEEE) (pS stands for phosphorylated serine). GS-1 was synthesized by Millegen (Labege, France).

The subject of another data set is NCI-H727. As to the kind of experiment: Cell survival assay, NCI-H727. Type of data set: cell-based. Particulars: Homo sapiens, 48 h exposure, nuclei count, read-out: Cell Lines IC50 NCI-H727. On the procedure:
as §1

The next data set has as its system Huh7 D12. As to the kind of experiment: Cell survival assay, Huh7 D12. Type of data set: cell-based. The conditions noted are these: Huh-7D12; 48 h exposure, nuclei count; read-out: Cell Lines IC50 Huh7 D12. Here is the method: as §1
In data set [3] the target is T1, DYRK1A (Rattus norvegicus, UniProt Q63470).
T1 construct: GST; made in house; host or cells: Escherichia coli
As to the kind of experiment: DYRK1A kinase assay. Type of data set: biochemical. Particulars: Table 4; 15 μM ATP. On the procedure:
as §2
After 30-min incubation at 30 °C, the reaction was stopped by harvesting, using a FilterMate harvester (Packard), onto P81 phospho-cellulose papers (GE Healthcare, Chicago, IL, USA) which were washed in 1% phosphoric acid. Scintillation fluid was added and the radioactivity measured in a Packard counter. Blank values were subtracted and activities calculated as pmoles of phosphate incorporated for the 30-min incubation. The activities were expressed in % of the maximal activity, i.e., in the absence of inhibitors. Controls were performed with appropriate dilutions of DMSO. […]

The next data set has as its system HCT116. As to the kind of experiment: Cell survival assay, HCT116. Type of data set: cell-based. The conditions noted are these: Homo sapiens, HCT-116. Here is the method: as §1
In a further data set the target is T2, CDK5/p25 (Homo sapiens, UniProt Q00535).
T2 construct: made in house
T2 sequence (Q00535 whole entry): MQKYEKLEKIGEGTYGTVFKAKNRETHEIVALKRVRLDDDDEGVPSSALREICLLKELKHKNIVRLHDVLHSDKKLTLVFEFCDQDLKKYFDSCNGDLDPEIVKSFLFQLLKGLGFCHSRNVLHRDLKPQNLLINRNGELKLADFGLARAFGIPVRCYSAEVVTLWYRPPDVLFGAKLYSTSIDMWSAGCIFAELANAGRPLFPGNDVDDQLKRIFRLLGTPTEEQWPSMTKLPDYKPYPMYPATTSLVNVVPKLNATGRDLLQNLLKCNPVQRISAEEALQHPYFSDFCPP
T2 sequence (Q15078 99-307 partner limits assumed): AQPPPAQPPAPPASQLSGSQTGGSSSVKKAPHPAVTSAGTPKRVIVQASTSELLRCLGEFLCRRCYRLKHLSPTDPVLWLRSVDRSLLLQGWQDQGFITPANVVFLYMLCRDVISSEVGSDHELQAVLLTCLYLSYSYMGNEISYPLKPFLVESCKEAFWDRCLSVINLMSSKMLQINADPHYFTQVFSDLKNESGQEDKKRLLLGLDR
The experiment in a line: CDK5/p25 kinase assay. It is filed as biochemical. The conditions noted are these: Table 4; 15 μM ATP. On the procedure: as §2, §3
CDK5/p25 (human, recombinant) was prepared as previously described. […] ATP (3000 Ci/mmol; 10 mCi/mL) in a final volume of 30 μL. After 30-min incubation at 30 °C, 25 μL aliquots of supernatant were spotted onto 2.5 × 3 cm pieces of Whatman P81 phospho-cellulose paper, and, 20 s later, the filters were washed five times (for at least 5 min each time) in a solution of 10 mL phosphoric acid/litter of water. The wet filters were counted in the presence of 1 mL ACS (Amersham, UK) scintillation fluid.

The next data set concerns Fibroblasts. As to the kind of experiment: Cell survival assay, normal skin diploid fibroblasts. It is filed as cell-based. The conditions noted are these: Fibroblast; normal cells, 48 h exposure, nuclei count; read-out: Cell Lines IC50 Fibroblasts. Here is the method: as §1
For data set [4], the system named is DYRK1A. Particulars: reported; cited from earlier work.
In data set [5] the test system is GSK-3α/β. Particulars: read-out: IC50 GSK3α/β, positive control, cited from earlier work.
Data set [6] deals with Casein kinase 1 (CK1δ/ε). The conditions noted are these: read-out: IC50 CK1, positive control, cited from earlier work.
The mark [7] stands for this setting: 48 h exposure, nuclei count, read-out: Cell Lines IC50 Caco2.
Setting [8] is: 48 h exposure, nuclei count, read-out: Cell Lines IC50 HCT116.
[9] abbreviates: Table 5, same values as Table 4.

In general, melting point refers to the temperature of the solid-liquid transition.

Each structure is given as a SMILES string. pIC50: −log10 of the molar value. Several values for one entry are separate records, joined by “and”; a condition that tells them apart may be missing. Identical values can stand only once. Like-named read-outs stand apart in the source and are kept apart here.

Turning to `O=C1NC(=S)S/C1=C\c1ccc2c(c1)OCO2` [Compound 3a, (5Z)-5-(1,3-Benzodioxol-5-ylmethylene)-2-thioxo-1,3-thiazolidin-4-one], the pIC50 was under 4.60 in the data set with MDA-MB231; under 4.60 in the data set on PC3; under 5.00 at Casein kinase 1 (CK1δ/ε) [1]; under 4.60 in the data set on Caco2 (setting [7]); 5.07 at GSK-3α/β [2]; under 4.60 in the data set with NCI-H727. Further, the pIC50 in the data set on Huh7 D12 was under 4.60; on DYRK1A [3] it was 7.15; with HCT116 (setting [8]), under 4.60; against CDK5/p25 it was under 5.00; with Fibroblasts, under 4.60.

With `COc1ccc(/C=C2\SC(=S)NC2=O)cc1O` [Compound 3b, (5Z)-5-(3-Hydroxy-4-methoxybenzylidene)-2-thioxo-1,3-thiazolidin-4-one], the melting point lay in the range of 222 to 224 °C. For the same compound, in the data set on MDA-MB231, the pIC50 was under 4.60. In addition, in the data set with PC3, the pIC50 is under 4.60. Besides, the pIC50 at Casein kinase 1 (CK1δ/ε) [1] was under 5.00. The pIC50 with Caco2 (setting [7]) is under 4.60. For the same compound, the pIC50 on GSK-3α/β [2] is under 5.00. Moreover, the pIC50 with NCI-H727 was under 4.60. For the same compound, the pIC50 in the data set on Huh7 D12 is under 4.60. At DYRK1A [3], this compound gave a pIC50 of 5.85. In the data set with HCT116 (setting [8]), the pIC50 was under 4.60. Further, the pIC50 against CDK5/p25 is under 5.00. In addition, in the data set with Fibroblasts, the pIC50 is under 4.60.

As for `COc1cc(/C=C2\SC(=S)NC2=O)ccc1O` [Compound 3c, (5Z)-5-(4-Hydroxy-3-methoxybenzylidene)-2-thioxo-1,3-thiazolidin-4-one], the pIC50 in the data set with MDA-MB231 was under 4.60; in the data set with PC3, under 4.60; on Casein kinase 1 (CK1δ/ε) [1], at most 5.00; with Caco2 (setting [7]), under 4.60; on GSK-3α/β [2], 5.10; with NCI-H727, under 4.60. Also, the pIC50 was under 4.60 in the data set with Huh7 D12, 7.19 at DYRK1A [3], 4.92 in the data set on HCT116 (setting [8]) and under 4.60 in the data set with Fibroblasts.

`O=C1NC(=S)S/C1=C\c1ccc2c(c1)OCCO2` [Compound 3f, (5Z)-5-(2,3-Dihydro-1,4-benzodioxin-6-ylmethylene)-2-thioxo-1,3-thiazolidin-4-one] yielded a melting point of 250 to 252 °C. For the same compound, the pIC50 in the data set on MDA-MB231 is under 4.60. Further, in the data set with PC3, the pIC50 was under 4.60. Also, the pIC50 at Casein kinase 1 (CK1δ/ε) [1] was under 5.00. Further, the pIC50 in the data set on Caco2 (setting [7]) is under 4.60. The pIC50 on GSK-3α/β [2] was at least 5.00. Besides, the pIC50 in the data set with NCI-H727 was under 4.60. Besides, the pIC50 in the data set with Huh7 D12 was under 4.60. On DYRK1A [3], the pIC50 is 7.25. For the same compound, the pIC50 in the data set on HCT116 (setting [8]) was under 4.60. This compound also gave a pIC50 against CDK5/p25 of under 5.00. Also, the pIC50 with Fibroblasts is under 4.60.

`O=C1NC(=S)S/C1=C\c1ccc2c(c1)CCO2` [Compound 3g, (5Z)-5-(2,3-Dihydro-benzofuran-5-ylmethylene)-2-thioxo-1,3-thiazolidin-4-one] came in with a melting point of 250 to 252 °C. In the data set with MDA-MB231, the pIC50 was under 4.60. Besides, the pIC50 in the data set with PC3 is under 4.60. Moreover, on Casein kinase 1 (CK1δ/ε) [1], the pIC50 is under 5.00. The pIC50 with Caco2 (setting [7]) was under 4.60. For the same compound, the pIC50 with Caco2 (read-out: IC50 Caco2) is 5.10. The pIC50 at GSK-3α/β [2] was at most 5.00. For the same compound, in the data set with NCI-H727, the pIC50 was under 4.60. The pIC50 in the data set on Huh7 D12 was under 4.60. At DYRK1A [3], this compound showed a pIC50 of 7.05. In addition, the pIC50 in the data set on HCT116 (setting [8]) was under 4.60. Moreover, in the data set on HCT116 (read-out: IC50 HCT 116), the pIC50 is 5.22. The pIC50 on CDK5/p25 is under 5.00. The pIC50 in the data set with Fibroblasts was under 4.60.

For `COc1ccc2c(c1)[nH]c1c(C)nccc12` [Harmine], the pIC50 in the data set with DYRK1A [4] was […]; in the data set with GSK-3α/β [5] (Table 4) it was under 5.00; in the data set on GSK-3α/β [5] (setting [9]), under 5.00; on Casein kinase 1 (CK1δ/ε) [6] (Table 4) it was 5.82; at Casein kinase 1 (CK1δ/ε) [6] (setting [9]), 5.82.

The values above are taken from article PMC8623179, “Design and Microwave Synthesis of New (5Z) 5-Arylidene-2-thioxo-1,3-thiazolinidin-4-one and (5Z) 2-Amino-5-arylidene-1,3-thiazol-4(5H)-one as New Inhibitors of Protein Kinase DYRK1A” (Pharmaceuticals, 2021).
